Laboratory results taken from ChEMBL document CHEMBL1148128, “Clathriol, a novel polyoxygenated 14beta steroid isolated from the New Zealand marine sponge Clathria lissosclera” (J Nat Prod, 2002).

Experiments:
[1] = Antiinflammatory in rat peritoneal mast cell assessed as inhibition of histamine release; format: functional, cell-based
PBMC = assay: Inhibition of PMA or fMLP-induced human PBMC activation assessed as superoxide production at 30 uM; format: functional; design: scale not given: the % may be the effect or the level left
[2] = Antiinflammatory in rat peritoneal mast cell assessed as inhibition of histamine release at 30 uM; format: functional; design: scale not given: the % may be the effect or the level left

Row | Compound | IC50 [1] | Activity (PBMC) | Activity [2]
1 | CC(C)[C@@H]1CC(O)O[C@H](C(C)[C@H]2CC(=O)[C@H]3[C@@H]4[C@@H](O)[C@H](O)[C@H]5[C@@H](O)[C@H](O)CC[C@]5(C)[C@H]4CC[C@]23C)C1 (stereo partly drawn) | 0.8 µM |  | 
2 | CC(C)C(CCC(C)[C@H]1CC(=O)[C@H]2[C@@H]3[C@@H](O)[C@H](O)[C@H]4C[C@@H](O)CC[C@]4(C)[C@H]3CC[C@]12C)C(C)O (stereo partly drawn) |  | 76% | 72%
